Test results reported in article PMC8778300 (Molecules, 2022).

Key:
human recombinant ALDH2 [1] = target: T1, human recombinant ALDH2 (Homo sapiens, UniProt P05091); assay: ALDH enzyme inhibition assay (ALDH2), diaphorase/resorufin fluorescence; type: biochemical; settings: average of at least two experiments ± standard error; 100 µM acetaldehyde, 500 µM NAD+; 20 min preincubation; NI = no inhibition up to 0.5 mM; read-out: IC50 (µM) ± SE (ALDH2)
T1 sequence (P05091 18-517): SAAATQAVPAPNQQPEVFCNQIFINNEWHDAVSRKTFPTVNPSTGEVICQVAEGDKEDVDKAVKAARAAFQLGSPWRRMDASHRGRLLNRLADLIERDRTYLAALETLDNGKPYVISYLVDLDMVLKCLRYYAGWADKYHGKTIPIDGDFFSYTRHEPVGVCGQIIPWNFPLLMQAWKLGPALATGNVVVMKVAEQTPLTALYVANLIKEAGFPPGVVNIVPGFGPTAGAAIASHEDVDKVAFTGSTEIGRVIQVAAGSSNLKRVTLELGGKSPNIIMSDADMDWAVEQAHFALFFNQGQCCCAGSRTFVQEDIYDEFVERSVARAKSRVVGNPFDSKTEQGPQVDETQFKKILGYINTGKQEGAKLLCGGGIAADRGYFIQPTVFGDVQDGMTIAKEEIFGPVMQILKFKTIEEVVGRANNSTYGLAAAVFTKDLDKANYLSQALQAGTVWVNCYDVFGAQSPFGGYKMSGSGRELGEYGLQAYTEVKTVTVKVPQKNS
Procedure: (§1) The inhibitory activity of the thiuram disulfide (4) was evaluated in vitro against human recombinant ALDH1a1 and ALDH2, as shown in Figure 3 and Table 1.
(§2) All tested compounds were prepared as 100 mM stock solutions in DMSO. […] Five µL of desalted enzyme […] Five µL of reaction buffer were also added to the “no enzyme” background control wells. The test compounds were added to the assay wells. The reaction plate was then centrifuged briefly at 1200 rpm, then incubated for 20 min at RT. […] The reaction plate was briefly centrifuged and incubated at RT for 60 min. Ten µL of detection reagent composed of 15 µg/mL diaphorase and […] were added. The reaction plate was briefly centrifuged and incubated for a further 10 min at RT in the dark.

[2] = target: T2, human recombinant ALDH1a1 (Homo sapiens, UniProt P00352); assay: ALDH enzyme inhibition assay (ALDH1a1), diaphorase/resorufin fluorescence; type: biochemical; settings: for IC50: read-out: IC50 (µM) ± SE (ALDH1a1); for fold reduction of ALDH1a1 inhibitory activity: relative to compound (2)
T2 sequence (P00352 1-501): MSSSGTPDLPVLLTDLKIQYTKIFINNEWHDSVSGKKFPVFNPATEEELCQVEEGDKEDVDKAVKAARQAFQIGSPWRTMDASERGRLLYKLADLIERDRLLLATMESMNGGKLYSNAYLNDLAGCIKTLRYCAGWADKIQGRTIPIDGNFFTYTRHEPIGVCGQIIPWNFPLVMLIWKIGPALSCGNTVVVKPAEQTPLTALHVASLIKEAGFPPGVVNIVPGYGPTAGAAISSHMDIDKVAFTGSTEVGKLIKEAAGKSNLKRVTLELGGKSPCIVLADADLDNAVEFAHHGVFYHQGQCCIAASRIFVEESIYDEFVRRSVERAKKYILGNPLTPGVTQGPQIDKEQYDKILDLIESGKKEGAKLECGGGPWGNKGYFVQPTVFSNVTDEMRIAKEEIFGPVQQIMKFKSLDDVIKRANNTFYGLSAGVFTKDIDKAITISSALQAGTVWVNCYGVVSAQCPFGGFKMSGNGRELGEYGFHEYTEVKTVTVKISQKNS
Procedure: as §1, §2

human recombinant ALDH2 [3] = target: T1, human recombinant ALDH2; settings: previously reported; cited from earlier work
[4] = average of at least two experiments ± standard error, 250 µM acetaldehyde, 500 µM NAD+, 20 min preincubation, NI = no inhibition up to 0.5 mM

| IC50 (human recombinant ALDH2 [1]) | IC50 [2, 4] | fold reduction of ALDH1a1 inhibitory activity [2] | IC50 (µM) ± SE (ALDH1a1) [2, 4] | Structure (SMILES) | IC50 against ALDH2 (human recombinant ALDH2 [3]) |
| --- | --- | --- | --- | --- | --- |
| > 500 µM | 5.76 ± 4.01 µM | more than 33 fold | – | CCN(Cc1ccncc1)C(=S)SSC(=S)N(CC)Cc1ccncc1 [Compound 4f, bis(N-(4-pyridylmethyl)ethylthiocarbamoyl)disulphide] | – |
| > 500 µM | 0.58 ± 0.41 µM | – | – | CCN(Cc1ccc(OC)cc1)C(=S)SSC(=S)N(CC)Cc1ccc(OC)cc1 [Compound 4e] | – |
| > 500 µM | 0.39 ± 0.31 µM | – | – | CCN(Cc1cccs1)C(=S)SSC(=S)N(CC)Cc1cccs1 [Compound 4h, bis(N-(2-thienylmethyl)ethylthiocarbamoyl)disulphide] | – |
| > 500 µM | 0.17 ± 0.1 µM | – | – | CCN(Cc1ccsc1)C(=S)SSC(=S)N(CC)Cc1ccsc1 [Compound 4i, bis(N-(3-thienylmethyl)ethylthiocarbamoyl)disulphide] | – |
| 200 µM | 0.39 ± 0.27 µM | – | – | CCN(Cc1ccco1)C(=S)SSC(=S)N(CC)Cc1ccco1 [Compound 4g, bis(N-(2-furylmethyl)ethylthiocarbamoyl)disulphide] | – |

Continued, molecule first:

| Structure (SMILES) | IC50 (human recombinant ALDH2 [1]) | IC50 [2, 4] | fold reduction of ALDH1a1 inhibitory activity [2] | IC50 (µM) ± SE (ALDH1a1) [2, 4] | IC50 against ALDH2 (human recombinant ALDH2 [3]) |
| --- | --- | --- | --- | --- | --- |
| CCN(Cc1ccc(Cl)cc1)C(=S)SSC(=S)N(CC)Cc1ccc(Cl)cc1 [Compound 4c, bis(N-4-Chlorobenzylethylthiocarbamoyl)disulphide] | > 500 µM | 0.86 ± 0.68 µM | five | – | – |
| CCN(Cc1ccccc1F)C(=S)SSC(=S)N(CC)Cc1ccccc1F [Compound 4b, bis(N-2-Fluorobenzylethylthiocarbamoyl)disulphide] | > 500 µM | 0.59 ± 0.46 µM | 3.5 fold | – | – |
| CCN(Cc1ccc(F)cc1)C(=S)SSC(=S)N(CC)Cc1ccc(F)cc1 [Compound 2] | > 500 µM | 0.17 ± 0.06 µM | – | – | no inhibition |
| CCN(Cc1ccc(C(F)(F)F)cc1)C(=S)SSC(=S)N(CC)Cc1ccc(C(F)(F)F)cc1 [Compound 4d, bis(N-4-trifluoromethylbenzylethylthiocarbamoyl)disulphide] | > 500 µM | > 500 µM | – | completely inactive | – |
| CCN(Cc1cccc(F)c1)C(=S)SSC(=S)N(CC)Cc1cccc(F)c1 [Compound 4a, bis(N-3-Fluorobenzylethylthiocarbamoyl)disulphide] | > 500 µM | 0.31 ± 0.14 µM | 2 fold | – | – |
